The subject of assay [1] is Melan-A/MART-1 in MITF-M transfected A375 tumor cells. The note with it: 24 hours, U0126 10 μM (FIG. 6). As for the experimental part:
(§1) Primers were designed from appropriate GenBank mRNA and genomic entries and designed to be intron-spanning to prevent simultaneous amplification of traces of genomic DNAs. Where this was not possible RNAs were treated with RNase-free DNase I and repurified.
(§2) To express MITF-M in cell lines expressing low levels of Melan-A/MART-1, MITF-M coding sequence was amplified from MITF-M-positive cells and cloned in an SV40-promoter expression vector (pSV21ink); translation of the MITF-M insert uses optimal Kozak initiation signals (Kozak (1999). Gene 234:187). Constructs were transfected into low-Melan-A/MART-1 expressor melanoma (MU-X and A375). In all studies controls comprised empty vector, transfection reagents in the absence of added DNA, and corresponding untransfected cells. Data shown in FIG. 6 for A375 and MU-X tumor cells transfected with MITF-M for 24 hours in the presence (10 μM) or absence of U0126 before PCR amplification of Melan-A/MART-1.

Assay [2] has as its system Melan-A/MART-1 in MITF-M transfected MU-X tumor cells. The settings on record: 24 hours, U0126 10 μM (FIG. 6). As for the experimental part: as §1, §2
The test system of assay [3] is gp100 antigen in MU-X melanoma cells. Kind of assay: Flow cytometric analysis of gp100 (HMB) staining in MU-X low antigen-expressing cells. The assay is classed as cell-based, human. The procedure: (§3) Determination of protein Antigen in Tumor Cells via Flow Cytometric Analysis: To evaluate expression of cytoplasmic Melan-A/MART-1 antigen in melanoma tumor cell lines, cells were first fixed for 10′ in 1% paraformaldehyde; the cells are pelleted and incubated for 5′ in 0.1% saponin prior to washing and addition of monoclonal antibody specific for Melan-A/MART-1, A-103 (Ramirez-Montagut, et al., supra) for 45′ at 22° C. Following two washes, the cells were stained for 30′ with FITC-conjugated goat-anti-mouse Ig antibody (DAKO, Carpenteria, Calif.) prior to fixation in 1% paraformaldehyde and analysis by flow cytometry (FACScan, Becton-Dickinson, Mt. View, Calif.). Histograms of fluorescence staining were generated for comparison of anti-Melan-A/MART-1 staining of various cell populations. Mean channel fluorescence was calculated using the “LYSIS” software provided by the manufacturer. Gp100 expression was determined similarly using the HMB45 monoclonal antibody.

The test system of assay [4] is gp100 antigen in MU-89 melanoma cells. Nature of the assay: Flow cytometric analysis of gp100 (HMB45 staining) in MU-89 cells. The assay is classed as cell-based, human. The settings on record: HMB 45 staining, control MU-89 41.6. As for the experimental part:
as §3

Assay [5] relates to melanocyte-related genes in MU-89 cells. Nature of the assay: RT-PCR of melanoma gene expression in MU-89 cells. The assay is classed as cell-based, human. The settings on record: MU-89 cells (FIG. 5).

Consider `N#CC(=C(/N)Sc1ccccc1N)/C(C#N)=C(\N)Sc1ccccc1N` [U0126], for which the Melan-A/MART-1 expression entry in assay [1] and in assay [2] was “augmented enhancement” in each case.

With `Nc1ncn([C@@H]2O[C@H](CO)[C@@H](O)[C@H]2O)c(=O)n1` [5-AZA, 5-azacytidine], the “gp100 mean channel fluorescence” value in assay [3] (MU-X cells, 5-AZA 40uM, MU-X control 12.8) was 39.0.

Consider `Nc1ncn([C@H]2C[C@H](O)[C@@H](CO)O2)c(=O)n1` [5 azadeoxycytidine], for which the “effect on interferon-beta induced gp100 expression” value in assay [3] (gp100 (HMB) staining (FIG. 4)) was “augmented”.

B1: OSM: Recombinant human oncostatin M (rhOSM) from R&D Systems (protein, UniProt P13725 26-221, looked up)
Oncostatin-M: AAIGSCSKEYRVLLGQLQKQTDLMQDTSRLLDPYIRIQGLDVPKLREHCRERPGAFPSEETLRGLGRRGFLQTLNATLGCVLHRLADLEQRLPKAQDLERSGLNIEDLEKLQMARPNILGLRNNIYCMAQLLDNSDTAEPTKAGRGASQPPTPTPASDAFQRKLEGCRFLHGYHRFMHSVGRVFSKWGESPNRSRR
Take B1: the “gp100 mean channel fluorescence” value in assay [4] was 29.5. Further, in assay [5], the MITF-A isoform expression entry is reported as “not detectably responsive”; the MITF-M expression entry is given as “down-modulates”; the “expression of Melan-A/MART-1, tyrosinase, gp100, TRP-1 and TRP-2 genes” value is on record as “induces down-modulation”.

The record behind these values is patent US8071321B2, “Methods for up-regulating antigen expression in tumors” (CytoCure LLC, priority 2002, dated 2011).
